Assay results reported in patent US6525001B1, “Substituted pyrimidine and pyridine herbicides” (Mid-American Commercialization Corporation, priority 1997, dated 2003).

Legend:
Assay type in all cases: in vivo
corn (Zea mays) = experiment: Test C; design: key: 0 was no effect; 100 was complete control; conditions: PREEMERGENCE
[1] = tested on: common groundsel (Senecio vulgaris); experiment: Test E pre-/postemergence/post directed; design: key: 0 is no injury; 100 is complete control; conditions: POSTEMERGENCE, Rate 125 g/ha
Method in brief: (§1)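 Three application modes in greenhouse pots: preemergence soil spray, postemergence foliar spray at two to four leaves, and post-directed spray to soil and plant base. Ratings of 0–100 injury, assigned visually against untreated controls 13 to 21 days later.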

[2] = tested on: field bindweed (Convolvulus arvensis); experiment: Test C; design: key: 0 was no effect; 100 was complete control; conditions: PREEMERGENCE
[3] = tested on: barnyardgrass (Echinochloa crus-galli); experiment: Test E pre-/postemergence/post directed; conditions: PREEMERGENCE
Method in brief: as §1

soybean (Glycine max) = experiment: Test C; design: key: 0 was no effect; 100 was complete control; conditions: PREEMERGENCE
[4] = tested on: lambsquarters (Chenopodium album); experiment: Test C; design: key: 0 was no effect; 100 was complete control; conditions: PREEMERGENCE
[5] = tested on: alexandergrass (Brachiaria plantaginea); experiment: Test E pre-/postemergence/post directed; design: key: 0 is no injury; 100 is complete control; conditions: PREEMERGENCE
Method in brief: as §1

| Compound | Plant response rating, Corn (corn (Zea mays); Rate 35 g/ha) | Plant response rating, Corn (corn (Zea mays); Rate 70 g/ha) | Plant response rating, Corn (corn (Zea mays); Rate 140 g/ha) | Plant response rating, Com. groundsel [1] | Plant response rating, Field bindweed ([2]; Rate 35 g/ha) | Plant response rating, Field bindweed ([2]; Rate 70 g/ha) | Plant response rating, Field bindweed ([2]; Rate 140 g/ha) | Plant response rating, Barnyardgrass ([3]; Rate 125 g/ha) | Plant response rating, Barnyardgrass ([3]; Rate 250 g/ha) | Plant response rating, Soybean (soybean (Glycine max); Rate 35 g/ha) | Plant response rating, Soybean (soybean (Glycine max); Rate 70 g/ha) | Plant response rating, Soybean (soybean (Glycine max); Rate 140 g/ha) | Plant response rating, Lambsquarters ([4]; Rate 35 g/ha) | Plant response rating, Lambsquarters ([4]; Rate 70 g/ha) | Plant response rating, Lambsquarters ([4]; Rate 140 g/ha) | Plant response rating, Alexandergrass ([5]; Rate 32 g/ha) | Plant response rating, Alexandergrass ([5]; Rate 64 g/ha) |
| --- | --- | --- | --- | --- | --- | --- | --- | --- | --- | --- | --- | --- | --- | --- | --- | --- | --- |
| Cc1cnc(-c2ccc(C(F)(F)F)cc2)nc1Cc1cccc(OC(F)(F)F)c1 [Compound 15] | 0 | 5 | 10 | 0 | 65 | 100 | 100 | 40 | 75 | 0 | 10 | 10 | 0 | 20 | 60 | – | – |
| COc1cnc(-c2ccc(C(F)(F)F)cc2)nc1Cc1cccc(C(F)(F)F)c1 [Compound 23] | 0 | 0 | 5 | – | 20 | 100 | 100 | – | – | 5 | 5 | 10 | 60 | 100 | 100 | 0 | 0 |
| Cc1cnc(-n2cnc(C(F)(F)F)c2)nc1Cc1cccc(C(F)(F)F)c1 [Compound 44] | – | – | – | – | – | – | – | – | – | – | – | – | – | – | – | 0 | – |
